For assay [1], the target named is T1, mppGalNAcT-1 (Mus musculus, UniProt O08912).
T1 construct: plasmids encoding truncated secreted ppGalNAcTs-1 to −5, -7, -10 and -11; made in house; host or cells: COS-7
T1 sequence (O08912 29-559 limits assumed): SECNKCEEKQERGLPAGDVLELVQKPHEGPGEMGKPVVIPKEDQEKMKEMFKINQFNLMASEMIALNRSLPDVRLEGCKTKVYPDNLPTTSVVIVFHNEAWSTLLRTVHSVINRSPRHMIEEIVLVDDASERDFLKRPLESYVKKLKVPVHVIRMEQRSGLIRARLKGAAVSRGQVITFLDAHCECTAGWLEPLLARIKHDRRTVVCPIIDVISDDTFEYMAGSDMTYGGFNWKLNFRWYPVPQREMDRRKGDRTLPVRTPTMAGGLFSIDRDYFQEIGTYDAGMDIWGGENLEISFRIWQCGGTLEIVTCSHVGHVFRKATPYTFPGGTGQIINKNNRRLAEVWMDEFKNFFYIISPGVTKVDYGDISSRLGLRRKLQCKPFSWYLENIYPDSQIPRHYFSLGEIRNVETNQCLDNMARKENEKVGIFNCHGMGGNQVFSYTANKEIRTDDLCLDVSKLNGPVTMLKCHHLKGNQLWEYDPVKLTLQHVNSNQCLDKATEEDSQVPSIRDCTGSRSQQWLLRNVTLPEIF
Kind of assay: ELLA for ppGalNAcTs, mppGalNAcT-1. It counts as biochemical, murine. Conditions: for IC50: ELLA, 20 μM UDP-GalNAc, 50 μM EA2 peptide 4; for mode of inhibition with respect to UDP-GalNAc: mppGalNAcT-1; for Ki: mppGalNAcT-1, with respect to UDP-GalNAc, read-out: KI versus UDP-GalNAc. On the procedure: (§1) COS-7 cells were transiently transfected with plasmids encoding truncated secreted ppGalNAcTs-1 to −5, -7, -10 and -11 as previously described. Hagen et al. (1997) J. Biol. Chem. 272:13843-13848. The crude conditioned medium was used as the enzyme source.
Standard reaction conditions for ppGalNAcT assays were as follows. The reaction mixture contained the following components in a final volume of 25 μL: 10 mM MnCl2, 40 mM sodium cacodylate, 40 mM β-mercaptoethanol, 0.1% Triton X-100, pH 6.5, 5 μL of conditioned media, and various concentrations of EA2 peptide 4, UDP-GalNAc and inhibitor. All uridine-based compounds were dissolved in dimethyl sulfoxide (DMSO). The concentration of DMSO in the reaction mixture was limited to 2% (v/v), as higher concentrations decreased ppGalNAcT activity. For inhibitor assays, reaction mixtures for positive controls also contained 2% DMSO. Unless otherwise stated, inhibitor assays were performed using 20 μM UDP-GalNAc and 50 μM EA2 peptide 4, the KM values for both substrates. Reactions were incubated at 37° C. and were terminated by the addition of 10 μL of 0.1 M EDTA. All experiments were performed in duplicate. Reaction rates were linear over the period monitored (20-30 min).
96-Well NeutrAvidin-coated plates were prewashed 3 times with 200 μL of wash buffer (25 mM Tris, 150 mM NaCl, 0.1% bovine serum albumin (BSA) (w/v), and 0.05% Tween (v/v), pH 7.2). Reactions were then transferred to the 96-well plates, incubated for 1 hour at room temperature (rt) and subsequently washed 3 times with 200 μL of phosphate-buffered saline (PBS) containing 0.5% BSA and 0.05% Tween, pH 7.1. A 100-μL solution of HPA-HRP in standard PBS buffer (1 μg/mL, pH 7.4) was added and the reaction was incubated for 1 h at rt. After 3 washes with 200 μL of PBS, bound HPA-HRP was quantified by the addition of 100 μL of TMB peroxide solution. The solutions were incubated for 5-15 min in the dark at rt. HRP activity was terminated by the addition of 50 μL of 2 N H2SO4 and the resulting solution was analyzed at 450 nm using a UV/Vis microtiter plate reader. The amount of product generated by the ppGalNAcT was extrapolated from absorbance values using an equation fit to the standard curve derived from Origin 6.1 software.
In order to screen the library in high-throughput format, a non-radioactive enzyme linked lectin assay (ELLA) for ppGalNAcTs was developed. As an acceptor substrate, the EA2 peptide (PTTDSTTPAPTTK; SEQ ID NO:12), a fragment of rat submandibular mucin, was chosen. Albone et al. (1994) J. Biol. Chem. 269:16845-16852. This peptide has been previously shown to be an efficient substrate for murine (m) ppGalNAcT-1 and is preferentially glycosylated at the fourth Thr residue from the N-terminus (underlined). Ten Hagen et al. (2001, supra). Biotinylation of EA2 allowed capture of (glyco)peptides onto 96-well NeutrAvidin-coated plates. The GalNAc-modified glycopeptide product could be detected using the α-GalNAc-specific lectin Helix pomatia agglutinin (HPA) (Hammarstrom et al. (1977) Biochemistry 16:2750-2755) conjugated to horseradish peroxidase (HRP). The bound HRP was quantified by addition of a chromogenic substrate.

Assay [2] has as its target T2, mppGalNAcT-3 (Mus musculus, UniProt P70419).
T2 construct: plasmids encoding truncated secreted ppGalNAcTs-1 to −5, -7, -10 and -11; made in house; host or cells: COS-7
T2 sequence (P70419 38-633 limits assumed): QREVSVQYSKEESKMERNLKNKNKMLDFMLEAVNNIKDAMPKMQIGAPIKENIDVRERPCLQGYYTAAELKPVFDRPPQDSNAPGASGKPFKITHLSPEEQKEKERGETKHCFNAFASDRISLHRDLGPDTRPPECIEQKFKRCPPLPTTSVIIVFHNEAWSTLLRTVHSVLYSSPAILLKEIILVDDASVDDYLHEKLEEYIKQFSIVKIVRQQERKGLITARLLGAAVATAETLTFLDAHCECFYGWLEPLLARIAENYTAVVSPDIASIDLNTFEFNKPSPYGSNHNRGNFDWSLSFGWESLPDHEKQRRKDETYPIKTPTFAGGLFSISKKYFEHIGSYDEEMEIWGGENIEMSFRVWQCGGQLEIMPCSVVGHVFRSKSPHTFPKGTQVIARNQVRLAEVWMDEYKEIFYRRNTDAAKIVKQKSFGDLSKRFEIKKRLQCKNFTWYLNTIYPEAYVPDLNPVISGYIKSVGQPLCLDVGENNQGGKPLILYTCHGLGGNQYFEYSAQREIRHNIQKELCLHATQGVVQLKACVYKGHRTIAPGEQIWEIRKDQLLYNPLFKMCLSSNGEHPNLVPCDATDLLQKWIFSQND
Kind of assay: ELLA for ppGalNAcTs, mppGalNAcT-3. Type of assay: biochemical, murine. The note with it: 20 μM UDP-GalNAc, 50 μM EA2 peptide 4. The procedure:
as §1
Standard reaction conditions for ppGalNAcT assays were as follows. The reaction mixture contained the following components in a final volume of 25 μL: 10 mM MnCl2, 40 mM sodium cacodylate, 40 mM β-mercaptoethanol, 0.1% Triton X-100, pH 6.5, 5 μL of conditioned media, and various concentrations of EA2 peptide 4, UDP-GalNAc and inhibitor. All uridine-based compounds were dissolved in dimethyl sulfoxide (DMSO). […] Reaction rates were linear over the period monitored (20-30 min).
96-Well NeutrAvidin-coated plates were prewashed 3 times with 200 μL of wash buffer (25 mM Tris, 150 mM NaCl, 0.1% bovine serum albumin (BSA) (w/v), and 0.05% Tween (v/v), pH 7.2). […] After 3 washes with 200 μL of PBS, bound HPA-HRP was quantified by the addition of 100 μL of TMB peroxide solution. […] HRP activity was terminated by the addition of 50 μL of 2 N H2SO4 and the resulting solution was analyzed at 450 nm using a UV/Vis microtiter plate reader. The amount of product generated by the ppGalNAcT was extrapolated from absorbance values using an equation fit to the standard curve derived from Origin 6.1 software.

What is called IC50 is the concentration needed to halve the response being measured. A high value points to a need for much substance. Broadly, the Ki is a dissociation constant, usually derived from enzyme kinetics or from competition with a known ligand.

Regarding `O=c1ccn([C@@H]2O[C@H](CON=Cc3ccc(O)c(O)c3O)[C@@H](O)[C@H]2O)c(=O)[nH]1` [1-68A], in assay [1], the IC50 worked out at 21 ± 1 µM, the “mode of inhibition with respect to UDP-GalNAc” value is reported as “competitive” and the inhibitory constant (Ki) came out at 7.8 ± 0.1 µM. In addition, half-maximal inhibition in assay [2] (IC50) required 40 ± 2 µM.

Turning to `O=C(CON=Cc1ccc(O)c(O)c1O)NC[C@H]1O[C@@H](n2ccc(=O)[nH]c2=O)[C@H](O)[C@@H]1O` [2-68A], in assay [1], the IC50 was 24 ± 2 µM, the “mode of inhibition with respect to UDP-GalNAc” value was “competitive” and the Ki came to 7.8 ± 1 µM. In assay [2], 38 ± 4 µM corresponded to half-maximal inhibition (IC50).

Source of the values: US20060063736A1, “Compositions and methods for inhibiting mucin-type O-linked glycosylation” (priority 2004, published 2006).
